# Data: patent publication US4348404A, “Antiinflammatory 4,5-diaryl-α-polyfluoroalkyl-1H-imidazole-2-methanamines” (E. I. Du Pont de Nemours and Company, priority 1981, dated 1982)
# Where two headings read alike, the source gives them in different places.
# System: adjuvant-induced arthritis in rats
# Experiment: Established Adjuvant-Induced Arthritis in Rats
# Type: in vivo, Lewis (Wistar) male rats
# Conditions: for percent paw volume reduction at the indicated dose: oral gavage once daily for 7 days; for ED50: read-out: Adjuvant Arthritis ED50
# [1] = rat, oral gavage once daily for 7 days (days 14-20), decrease from control paw volume, uninjected left hind paw, day 21, estimated from dose-response regression lines by inspection
smiles,measurement,setting,value
COc1ccc(-c2nc(C(N)(C(F)(F)F)C(F)(F)F)n(C)c2-c2ccc(OC)cc2)cc1 [Example 5],percent paw volume reduction at the indicated dose,"rat, @ 50 mg/kg",-27%
"Cn1c(C(N)(C(F)(F)F)C(F)(F)F)nc(-c2ccc(F)cc2)c1-c1ccc(F)cc1 [Example 6, 4,5-bis(4-fluorophenyl)-1-methyl-α,α-di(trifluoromethyl)-1H-imidazole-2-methanamine]",ED50,[1],3.4 mg/kg
"CNC(c1nc(-c2ccc(F)cc2)c(-c2ccc(F)cc2)n1C)(C(F)(F)F)C(F)(F)F [Example 3, 4,5-Bis-(4-fluorophenyl)-N,1-dimethyl-α,α-di(trifluoromethyl)-1H-imidazole-2-methanamine]",percent paw volume reduction at the indicated dose,"rat, @ 25 mg/kg",-41%
"NC(c1nc(-c2ccc(F)cc2)c(-c2ccc(F)cc2)[nH]1)C(F)(F)F (stereo not drawn) [Example 2, 4,5-Bis(4-fluorophenyl)-α-trifluoromethyl-1H-imidazole-2-methanamine]",ED50,[1],19 mg/kg
Cc1ccc(-c2nc(C(N)(C(F)(F)F)C(F)(F)F)[nH]c2-c2ccc(C)cc2)cc1 [Example 7],ED50,[1],5.4 mg/kg
NC(c1nc(-c2ccccc2)c(-c2ccccc2)[nH]1)(C(F)(F)F)C(F)(F)F [Example 9],ED50,[1],8 mg/kg
"NC(c1nc(-c2ccc(F)cc2)c(-c2ccc(F)cc2)[nH]1)(C(F)(F)F)C(F)(F)F [Example 4, 4,5-bis(4-fluorophenyl)-α,α-di(trifluoromethyl)-1H-imidazole-2-methanamine]",ED50,[1],1.7 mg/kg
"COc1ccc(-c2nc(C(N)(C(F)(F)F)C(F)(F)F)[nH]c2-c2ccc(OC)cc2)cc1 [Example 1, 4,5-Bis(4-methoxyphenyl)-α,α-di(trifluoromethyl)-1H-imidazole-2-methanamine]",ED50,[1],2 mg/kg
NC(c1nc(-c2ccc(Cl)cc2)c(-c2ccc(Cl)cc2)[nH]1)(C(F)(F)F)C(F)(F)F [Example 8],ED50,"Rattus norvegicus, po",7 mg/kg
